Data on five molecules can be found in patent publication US5583222A, “Azepanes and their ring homologues having protein kinase inhibiting activity” (Hoffmann-La Roche Inc., priority 1994, dated 1996).

Structures can show the parent of a compound that is named as a salt. Some results are limits rather than exact numbers.

In one experiment the test system is T-lymphocyte. The experiment in a line: Inhibition of T-lymphocyte proliferation. Format: cell-based. The settings on record: human mononuclear cells, PHA 1 μg/ml, [3H]thymidine, 3rd and 4th day, read-out: Test Procedure D: IC50, inhibition of T-lymphocyte proliferation. Here is the method: D: Inhibition of T-lymphocyte proliferation: Human mononuclear cells are isolated from venous blood of a healthy donor and a suspension of 5×10^5 cells/ml in RPMI 1640 medium, which contains 10% FCS, is prepared. The cells are stimulated with 1 μg/ml of T-cell-specific mitogen phytohaemagglutinin (PHA). 200 μl aliquots of cell suspension are treated in microtitre plates with the test substances in serial dilutions in the concentration range 0.03-10 μM. The cell proliferation is measured on the 3rd and 4th day by incubation with 1 μCi of [^3 H]thymidine during the last 6 hours of the respective day. The radioactivity taken up is measured with a liquid scintillation counter.

The test system of another experiment is HaCaT-cells. Put plainly: Inhibition of keratinocyte proliferation a) HaCaT-cells. Format: cell-based. The note with it: Homo sapiens, 48 hours, [3H]thymidine incorporation, read-out: Test Procedure E a: IC50, inhibition of keratinocyte proliferation. Here is the method:
(§1) E Inhibition of keratinocyte proliferation: a) HaCaT-cells (immortalised human cells line): HaCaT-cell culture is effected in medium DMEM/F12 (mixture ratio 3/1) which contains serum (FCS, 5%), epidermal growth factor (EGF), hydrocortisone, cholera toxin, insulin, L-glutamine and penicillin/streptomycin. 5000 cells in 0.2 ml of medium are used per well in microtitre plates. The test substances are diluted in dimethyl sulphoxide/(DMSO)/medium and used in the concentration range 0.01-10 μM at the start of the culture. The cells are then incubated at 37° C. for 48 hours; radioactive [^3 H]thymidine is added during the last 6 hours. After disrupting the cells with trypsin incorporated activity is measured in a scintillation counter. The inhibitory activity of the test substance is given as the micromolar concentration which is required to reduce the thymidine incorporation by 50% (IC50 [μM]).
On the technique in general: Incorporation of labelled thymidine or its analogues reports DNA synthesis.

For experiment [1], the system named is protein kinase C (PKC). Put plainly: Inhibition of protein kinase C (PKC) (in cells), MARCKS phosphorylation in 3T3 fibroblasts. Format: cell-based. The settings on record: Fibroblast, TPA 100 nM, phosphorylation of 80 kD MARCKS protein, 37° C., read-out: Test Procedure C: IC50, inhibition of PKC in cells. Here is the method: C: Inhibition of protein kinase C (PKC) (in cells): The intracellular protein kinase C (PKC) activity is determined in 3T3 fibroblasts by measuring the phosphorylation of a PKC-specific substrate, namely 80 kD MARCKS protein (myristoylated alanine-rich C-kinase substrate). The endogenous ATP is firstly labelled by incubating the cells at 37° C. with 80-200 μCi/ml of inorganic ^32 P-labelled phosphate. Then, the activation of the PKC is effected by phorbol ester (tetradecanoyl-phorbol 13-acetate (TPA); 100 nM). The test substances are used 15 minutes prior to TPA in dimethyl sulphoxide (DMSO)/buffer in the concentration range 0.1-100 μM. After incubation at 37° C. for 15 minutes the reaction is stopped by removing the medium and the cells are lysed by the addition of 1% Triton X-100 in phosphate buffer. The cell extract is subjected to a heat treatment (20 minutes at 90° C.) and subsequently centrifuged, whereby the MARCKS protein remains dissolved in the supernatant. This is then separated by discontinuous, one-dimensional SDS gel electrophoresis and the radioactivity in the 80 kD protein band is measured by a phosphoimager.

The target in experiment [2] is protein kinase C (PKC). The experiment in a line: Inhibition of protein kinase C (PKC) (isolated enzyme). It is filed as biochemical. The note with it: partially purified PKC from swine brain; histone H1 substrate; 10 μM ATP; pH 7.4; 32° C., 2 minutes; read-out: Test Procedure A: IC50, inhibition of PKC (isolated enzyme). Here is the method: A: Inhibition of protein kinase C (PKC) (isolated enzyme): Protein kinase C (PKC) activity is determined by measuring the transfer of ^32 P-labelled phosphate from ^32 P-γ-ATP (10 μM)to histone H1 (200 μg/ml) as the substrate. Partially purified PKC from swine brain is used as the enzyme source [DEAE chromatography according to the method of U. Kikkawa et al. (Methods Enzymol. 99, 288, 1983)]. Activation of the PKC is effected by phospholipid vesicle prepared by ultrasound treatment of a mixture of 0.05 ml of phosphatidylserine (10 mg/ml) and 0.005 ml of diolein (10 mg/ml) in 5 ml of Tris-HCl buffer (20 mM, pH 7.4). The test substances are used in dimethyl sulphoxide (DMSO)/buffer in the concentration range 0.001-100 μM. The test is started by the addition of enzyme; after incubation at 32° C. for 2 minutes the reaction is stopped by the addition of 20% trichloroacetic acid (with 1% SDS and 1% sodium pyrophosphate). The precipitated radioactive histone protein is separated from excess ATP by filtration over nitrocellulose membranes and the radioactivity on the filter is measured in a scintillation counter. The inhibitory activity of the test substance is given as the micromolar concentration which is required to reduce the PKC activity by 50% (IC50 [μM]).

The target of experiment [3] is cAMP-dependent protein kinase (PKA). The experiment in a line: Inhibition of cAMP-dependent protein kinase (PKA). Format: biochemical. The note with it: partially purified PKA from swine brain; histone H1 substrate; 10 μM ATP; 2 μM cyclic AMP; pH 7.4; 32° C., 2 minutes; read-out: Test Procedure B: IC50, inhibition of PKA. Here is the method: B: Inhibition of CAMP-dependent protein kinase (PKA): PKA activity is determined by measuring the transfer of ^32 P-labelled phosphate from ^32 P-γ-ATP (10 μM) tO histone H1 (333 μg/ml) as the substrate. Partially purified PKA from swine brain is used as the enzyme source [DEAE chromatography according to the method of U. Kikkawa et al. (Methods Enzymol. 99, 288, 1983)]. Activation of the PKA is effected by cyclic AMP (2 μM) in Tris-HCl buffer (20 mM, pH 7.4). The test substances are used in dimethyl sulphoxide (DMSO)/buffer in the concentration range 0.001-100 μM. The test is started by the addition of enzyme; after incubation at 32° C. for 2 minutes the reaction is stopped by the addition of 20% trichloroacetic acid (with 1% SDS and 1% sodium pyrophosphate). The precipitated radioactive histone protein is separated from excess ATP by filtration over nitrocellulose membranes and the radioactivity on the filter is measured in a scintillation counter. The inhibitory activity of the test substance is given as the micromolar concentration which is required to reduce the PKA activity by 50% (IC50 [μM]).

For another experiment, the system named is Primary keratinocytes. Put plainly: Inhibition of keratinocyte proliferation b) Primary keratinocytes. It is filed as cell-based. The note with it: primary keratinocytes from human foreskin, 48 hours, [3H]thymidine incorporation, read-out: Test Procedure E b: IC50, inhibition of keratinocyte proliferation. Here is the method:
as §1, with “proliferation:” for “proliferation: a) HaCaT-cells (immortalised human cells line):”, “[μM]). b) Primary keratinocytes: Keratinocytes, isolated from human foreskin, are used in the primary culture up to passage 7. The culture and test conditions are identical with those of the HaCaT-cells with the exception of the use of 10000 cells per well.” for “[μM]).”

As for `COc1ccc(O)c(C(=O)c2ccc(C(=O)O[C@@H]3CCCNC[C@H]3NC(=O)c3cc(C)c(O)c(C)c3)cc2)c1F` [Example 20, 4-(2-Fluoro-6-hydroxy-3-methoxy-benzoyl)-benzoic acid (3R,4R)-3-(4-hydroxy-3,5-dimethyl-benzoylamino)-azepan-4-yl ester hydrochloride (1:1)], the IC50 in the experiment with T-lymphocyte was 100 to 6000 nM; with HaCaT-cells, 3000 to 10000 nM; with protein kinase C (PKC) [1], 340 nM.

For `Cc1cc(C(=O)N[C@@H]2CNCCC[C@H]2OC(=O)c2ccc(C(=O)c3c(O)ccc4c3OCCO4)cc2)cc(C)c1O` [Example 41], the IC50 in the experiment with T-lymphocyte was 300 nM; on protein kinase C (PKC) [2], 40 nM; in the experiment on protein kinase C (PKC) [1] it was over 1000 nM; in experiment [3], 13 nM.

Turning to `O=C(N[C@@H]1CNCCC[C@H]1OC(=O)c1ccc(C(=O)c2cc3ccccc3cc2O)cc1)c1ccc(O)cc1` [Example 60, 4-(3-Hydroxy-naphthalen-2-ylcarbonyl)-benzoic acid (3R,4R)-3-(4-hydroxy-benzoylamino)-azepan-4-yl ester hydrochloride (1:1)], the IC50 in the experiment on T-lymphocyte was 2000 to 5000 nM; at protein kinase C (PKC) [2] it was 1200 nM; in the experiment with HaCaT-cells it was 300 to 500 nM; in the experiment with protein kinase C (PKC) [1] it was 2700 nM; in experiment [3], 9 nM; with Primary keratinocytes, 300 to 6000 nM.

For the molecule `Cc1cc(C(=O)N[C@@H]2CNCCC[C@H]2OC(=O)c2ccc(C(=O)c3c(O)ccc(F)c3F)cc2)cc(C)c1O` [Example 25, 4-(2,3-Difluoro-6-hydroxy-benzoyl)-benzoic acid (3R,4R)3-(4-hydroxy-3,5-dimethyl-benzoylamino)-azepan-4-yl ester hydrochloride (1:1)], the IC50 with T-lymphocyte was 1000 nM; on protein kinase C (PKC) [2] it was 40 nM; in the experiment on protein kinase C (PKC) [1], 800 nM; in experiment [3], 14 nM.

In the case of `COc1cc(O)c(C(=O)c2ccc(C(=O)O[C@@H]3CCCNC[C@H]3NC(=O)c3ccc(O)cc3)cc2)c(F)c1` [Example 57, 4-(2-Fluoro-6-hydroxy-4-methoxy-benzoyl)-benzoic acid (3R,4R)-3-(4-hydroxy-benzoylamino)-azepan-4-yl ester hydrochloride (1:1)], the IC50 on protein kinase C (PKC) [2] was 867 nM; in the experiment on HaCaT-cells, 300 to 600 nM; with protein kinase C (PKC) [1] it was 2000 nM; in experiment [3], 5 nM; in the experiment on Primary keratinocytes, 600 nM.
